Data from PubChem BioAssay (NCI).
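Grown in 96-well plates, cells were treated for 48 hours with each compound at five concentrations. Insufficient inhibition: endpoint recorded as highest concentration tested. Abbreviation: GI50, concentration required for 50% inhibition of growth. TGI: concentration producing complete growth inhibition.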

Tested on: MDA-MB-468 breast
Test: inhibition of tumour cell growth, NCI panel, 48 h

Question: For `CC1(C)N=C(N)N=C(N)N1c1ccc(Cl)c(Cl)c1`, which GI50 is on record?
Answer: 337 nM

Question: And the TGI?
Answer: > 57500 nM

Question: With `Brc1ccc2[nH]cc(-c3nn4cc(-c5nccs5)nc4s3)c2c1` as the molecule, how does the GI50 read?
Answer: 3260 nM

Question: What about the TGI of the same molecule?
Answer: 18300 nM

Question: How did the GI50 turn out when `CN(C)CCOc1ccc(-c2cc(-c3ccc4c(c3)CC/C4=N\O)c(-c3ccncc3)o2)cc1` was run?
Answer: 2800 nM

Question: And the TGI?
Answer: 6170 nM

Question: Which results are given for `COc1ccc(-c2nc(-c3nc4ccc(C(F)(F)F)cc4[nH]3)c3ccccn23)cc1`?
Answer: GI50: 13400 nM; TGI: > 100000 nM

Question: What does the source list for `CN(C)c1ccc(C(=C2C=CC(=[N+](C)C)C=C2)c2ccccc2Cl)cc1`?
Answer: GI50: 220 nM; TGI: 655 nM

Question: Which GI50 does the source give for `Cc1ncc(-c2ccnc(Nc3ccc(S(C)(=O)=O)cc3)n2)n1C(C)C` here?
Answer: 1120 nM

Question: And the TGI?
Answer: 2930 nM

Question: How did the GI50 turn out when `CC(=O)c1ccc2c(c1)N(CCCN(C)C)c1ccccc1S2` was run?
Answer: 10400 nM

Question: And the TGI?
Answer: 22800 nM

Question: With `CNC(=O)c1cc2c(Oc3ccc(NC(=S)NC(=O)Cc4ccccc4)cc3F)ccnc2cc1OC` as the molecule, how does the GI50 read?
Answer: > 29900 nM

Question: What about the TGI of the same molecule?
Answer: > 100000 nM

Question: Which GI50 does the source give for `CSc1nc(N)c2c(n1)NC(c1ccccc1)C1CCc3ccccc3C1=N2` (configuration not stated) here?
Answer: 84400 nM

Question: And the TGI?
Answer: > 100000 nM

Question: How did the GI50 turn out when `CCN1C(=O)N(CC)C2C1NN=c1s/c(=C\c3cccc([N+](=O)[O-])c3)c(=O)n12` (configuration not stated) was run?
Answer: 375 nM

Question: What about the TGI of the same molecule?
Answer: > 100000 nM

Question: Which GI50 does the source give for `Oc1ccccc1C=Nc1ccccc1N=Cc1ccccc1O.[Cu+2]` here?
Answer: 1730 nM

Question: And the TGI?
Answer: 13500 nM

Question: `N=C(N)SCc1ccc([N+](=O)[O-])cc1[N+](=O)[O-]` was tested. Which GI50 did it give?
Answer: 2520 nM

Question: What about the TGI of the same molecule?
Answer: 8550 nM

Question: Which results are given for `C[C@]12CC[C@@H]3c4ccc(O)cc4CC[C@H]3[C@@H]1CC[C@@H]2NS(=O)(=O)c1ccc2ccccc2c1`?
Answer: GI50: 3620 nM; TGI: 15200 nM

Question: How did the GI50 turn out when `CN1CCN(c2ccc(C(=O)Nc3cccc(C#Cc4cccc5[nH]nc(N)c45)c3)cc2C(F)(F)F)CC1` was run?
Answer: 821 nM

Question: What about the TGI of the same molecule?
Answer: 2390 nM

Question: What does the source list for `CCCCCSC1C2C(=O)C(Br)=CC13CCNc1c(O)c4c5c(c13)=[N+]2CCC=5C=N4` (configuration not stated)?
Answer: GI50: 390 nM; TGI: 1090 nM

Question: What does the source list for `COC(=O)/C(=C\c1c(-c2ccccc2)[nH]c2ccccc12)S(C)(=O)=O`?
Answer: GI50: 5400 nM; TGI: 84800 nM

Question: Which GI50 does the source give for `CCN(Cc1cccc(F)c1F)c1ccc(CO)c(Cl)c1` here?
Answer: < 12.5 nM

Question: What about the TGI of the same molecule?
Answer: 35 nM

Question: With `COC(=O)[C@@H](OC)[C@@H]1Cc2cc3cc(OC4CC(OC5CC(O)C(O)C(C)O5)C(O)C(C)O4)c(C)c(O)c3c(O)c2C(=O)[C@H]1OC1CC(OC2CC(OC3CC(C)(O)C(O)C(C)O3)C(O)C(C)O2)C(O)C(C)O1` (some centres not stated) as the molecule, how does the GI50 read?
Answer: 28.3 nM

Question: What about the TGI of the same molecule?
Answer: 71.3 nM

Question: For `CC/C=C\C[C@H](O)C/C=C1/C(=O)C=C[C@@H]1C/C=C\CCCC(=O)NC`, which GI50 is on record?
Answer: 940 nM

Question: What about the TGI of the same molecule?
Answer: 2510 nM

Question: With `CN(C)c1ccc(/C=N/NC(=O)c2cccc3ccccc23)c(Cl)c1` as the molecule, how does the GI50 read?
Answer: 311 nM

Question: What about the TGI of the same molecule?
Answer: 2570 nM

Question: How did the GI50 turn out when `O=Nc1c(O)c2ccccc2c2ccccc12` was run?
Answer: 1810 nM

Question: What about the TGI of the same molecule?
Answer: 3730 nM

Question: What does the source list for `COc1ccc(/C=N\NC(=O)c2ccc3nc(-c4ccc(Br)cc4)[nH]c3c2)cc1`?
Answer: GI50: 2750 nM; TGI: 5970 nM

Question: `COc1ccc2[nH]c(O)c(/C=c3/ccc4c(c3)N=C(c3ccc(F)cc3)N=4)c2c1` was tested. Which GI50 did it give?
Answer: 4140 nM

Question: And the TGI?
Answer: 22300 nM

Question: Which results are given for `CC(=O)/C(=C\c1c(-c2ccccc2)[nH]c2ccccc12)S(=O)(=O)c1ccccc1`?
Answer: GI50: 987 nM; TGI: 14800 nM

Question: `Oc1c(CNCCNCc2cc(Cl)cc(Cc3ccccc3)c2O)cc(Cl)cc1Cc1ccccc1` was tested. Which GI50 did it give?
Answer: 307 nM

Question: And the TGI?
Answer: 4430 nM

Question: `COc1cc(NC(C)CCCN)c2ncccc2c1Sc1ccc(Cl)cc1` (configuration not stated) was tested. Which GI50 did it give?
Answer: 1700 nM

Question: And the TGI?
Answer: 3110 nM

Question: Which results are given for `Clc1ccc(N2CCC(N3CCCC3)CC2)cc1-c1nc2ccccc2[nH]1`?
Answer: GI50: 12100 nM; TGI: 26300 nM

Question: How did the GI50 turn out when `COc1ccc(Oc2cc(NCCC(F)(F)F)c3ncc(-c4ccc(C(=O)NC5CC5)c(C)c4)n3n2)c(F)c1F` was run?
Answer: 3650 nM

Question: And the TGI?
Answer: > 100000 nM

Question: For `Cc1cc2c(cc1C)[n+](Cc1ccc3ccccc3n1)cn2Cc1ccc2ccccc2n1`, which GI50 is on record?
Answer: 444 nM

Question: What about the TGI of the same molecule?
Answer: 1950 nM

Question: What does the source list for `COc1cc(C2C3=C(COC3=O)Nc3cc4c(cc32)OCO4)cc2c1OCO2` (configuration not stated)?
Answer: GI50: 55.9 nM; TGI: 242 nM

Question: For `COc1ccc2nccc(/C=C/c3ccnc4ccc(OC)cc34)c2c1`, which GI50 is on record?
Answer: > 100000 nM

Question: What about the TGI of the same molecule?
Answer: > 100000 nM
